Experimental data reported in patent US7374920B2, “Ginkgo biloba levopimaradiene synthase” (priority 2001, dated 2008).
“Also recorded” adds a separate entry of the source.

Assays:
[1] = tested on: G. biloba seedlings, plants, and trees; settings: cited from earlier work; for effect on diterpenoid content: cycloartenol synthase inhibitors (Huh, et al., 1993)
Levopimaradiene synthase = biological target: T1, Levopimaradiene synthase (Ginkgo biloba, UniProt Q947C4); assay: levopimaradiene synthase activity towards geranyl diphosphate and farnesyl diphosphate; assay type: biochemical; settings: E. coli expression, 200 μM substrate, overnight at 32° C., GC or GC/MS
T1 construct: thioredoxin (from pET32c(+)); made in house; host or cells: E. coli BL21(DE3), soluble fraction of the lysate
T1 sequence (Q947C4 60-873): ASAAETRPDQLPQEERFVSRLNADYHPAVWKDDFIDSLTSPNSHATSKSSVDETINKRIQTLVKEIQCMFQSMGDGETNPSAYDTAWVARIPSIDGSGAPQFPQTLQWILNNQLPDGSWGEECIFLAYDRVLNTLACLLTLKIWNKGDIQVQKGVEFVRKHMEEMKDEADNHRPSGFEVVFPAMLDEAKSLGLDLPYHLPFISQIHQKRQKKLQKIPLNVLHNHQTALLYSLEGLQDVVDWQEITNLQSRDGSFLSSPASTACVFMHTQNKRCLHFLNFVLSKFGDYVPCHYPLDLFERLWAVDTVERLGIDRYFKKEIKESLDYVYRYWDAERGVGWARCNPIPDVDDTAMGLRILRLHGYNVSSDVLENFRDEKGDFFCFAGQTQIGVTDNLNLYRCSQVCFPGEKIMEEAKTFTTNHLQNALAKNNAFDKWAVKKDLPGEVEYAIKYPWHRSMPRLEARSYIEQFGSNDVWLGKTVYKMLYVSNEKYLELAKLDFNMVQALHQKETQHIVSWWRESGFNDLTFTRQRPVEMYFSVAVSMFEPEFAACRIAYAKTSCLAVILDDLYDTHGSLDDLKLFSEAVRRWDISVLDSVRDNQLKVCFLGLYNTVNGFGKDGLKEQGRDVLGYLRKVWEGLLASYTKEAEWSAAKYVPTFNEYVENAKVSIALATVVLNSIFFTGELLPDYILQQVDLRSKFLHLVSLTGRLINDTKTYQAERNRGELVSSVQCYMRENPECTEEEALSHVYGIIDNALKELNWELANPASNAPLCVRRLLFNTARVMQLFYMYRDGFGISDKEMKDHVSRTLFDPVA
Method: Levopimaradiene synthase was also tested for activity towards 200 μM geranyl diphosphate and farnesyl diphosphate. Cell cultures were induced and lysed as noted above. The soluble fraction of the lysate was incubated overnight at 32° C. with 200 μM substrate in 30 mM HEPES, pH 7.2, 5 mM DTT, 5% glycerol, 2 mM MgCl2 and 500 μM MnCl2, and overlaid with hexane (1 mL).
(§1) All in vitro reactions were extracted 3× with hexane and dried over MgSO4. The reaction was further extracted twice with diethyl ether and dried over MgSO4. Thereafter, the crude lysate was suspended in 100 mM Tris, pH 8.0 containing 2.9 units/mg apyrase (a dephosphorylating agent) and 10 units/μL calf intestinal alkaline phosphatase, incubated at 30° C. for 3 hours, and extracted with diethyl ether as noted above (Croteau and Cane, 1985). The crude reaction mixtures were eluted over SiO2, concentrated, and analyzed by GC and GC/MS.
Gas chromatography spectra were obtained on a Hewlett Packard 6890 Series GC System equipped with an Rtx-5 capillary column (Restek, 30 m×0.25 mm i.d., 0.10 μm df). The following separation conditions and temperature program were employed: injector port 250° C., FID 250° C., split ratio 39:1, helium flow 20 cm/s (0.6 mL/min), 150° C. hold 5 min, increase to 250° C. (5° C./min), hold 5 min. […]

[2] = in vitro enzymatic assay of levopimaradiene synthase constructs expressed in E. coli BL21(DE3); assay type: biochemical, Escherichia coli; settings: E. coli BL21(DE3), soluble lysate fraction, 20 μM GGDP, overnight at 32° C., GC and GC/MS
Method: The desired plasmids were prepared by ligating the mutated gene insert into the similarly digested vectors pET32c(+) (Novagen; Madison, Wis.) and pRS426GAL (Hua, 2000), a multiple copy yeast expression vector. These plasmids was expressed in E. coli BL21(DE3) (Novagen; Madison, Wis.). E. coli cells were grown in Luria-Bertani medium supplemented with 100 μg/mL ampicillin at 37° C. with shaking to OD600 ˜0.6. The following parameters were tested: isopropyl 1-thio-β-D-galactopyranoside (IPTG) concentration (50, 100, 250, 500, and 1000 μM); and temperature and time (20° C. for 2, 3, 4, 6, 21 hours, 22° C. for 6, 8, 16, 19, 22, 45 hours, and 30° C. for 3, 6 hours). The following assay conditions were tested to obtain maximum diterpene product yield: 30 mM HEPES (N-2-hydroxyethylpiperazine-N′-[…]), pH 6.9, 7.2, 7.6, 8.0; 30 mM Tris (tris(hydroxymethyl)aminomethane hydrochloride), pH 7.4, 7.8, 8.2; 1, 5, 10% glycerol; 1, 3, 5, 10, 20 mM DTT (dithiothreitol); 20 mM β-mercaptoethanol; 2, 5, 8% Triton X-100; 5% Tween 80; 0, 2, 7.5, 20, 50 mM MgCl2; 0, 30, 500, 1000 μM MnCl2; 2, 10, 13.3, 20, 40, 80, 200 μM GGDP; and 23° C. and 32° C. assay temperatures.
Optimal soluble protein production and diterpene yield were obtained with the following conditions. Cell cultures were induced with 1 mM IPTG at 20° C. with shaking for 6 hours and lysed by sonication in 30 mM HEPES, pH 7.2, 5 mM DTT, and 5% glycerol. The soluble fraction of the lysate (100 mg/mL) was incubated with 20 μM GGDP in 30 mM HEPES, pH 7.2, 5 mM DTT, 5% glycerol, 2 mM MgCl2, and 500 μM MnCl2 overnight at 32° C.
as §1
(§2) Gas chromatography spectra were obtained on a Hewlett Packard 6890 Series GC System equipped with an Rtx-5 capillary column (Restek, 30 m×0.25 mm i.d., 0.10 μm df). The following separation conditions and temperature program were employed: injector port 250° C., FID 250° C., split ratio 39:1, helium flow 20 cm/s (0.6 mL/min), 150° C. hold 5 min, increase to 250° C. (5° C./min), hold 5 min. GC/MS spectra were obtained on a Hewlett-Packard 5890A instrument with a 30-m DB-5 ms column (J&W Scientific Inc., 0.25 mm i.d., 0.10 μm df). The following separation conditions and temperature program were employed: injector port 280° C., transfer lines: 280° C., helium flow at 30 cm/s (1 mL/min) with splitless injection at 150° C. hold 3 min, increase to 250° C. (5° C./min), hold 5 min. Mass spectra (m/z 50 to 500) were obtained on a VG ZAB-HF reverse-geometry double-focusing instrument at 70 eV with an electron-impact ion source (200° C.). Accelerating voltage was set to 8 kV and the resolution was 1000 (10% valley).
The skilled artisan recognizes that lysis and assay conditions should be optimized. Examples of parameters that can be adjusted to optimize conditions include altering buffer, pH, reductant, reductant concentration, metal cofactors, cofactor concentrations, glycerol concentrations, substrate concentrations, and assay temperatures. […] Maximum soluble protein production and diterpene yield were obtained with the following conditions. Cell cultures were induced with 1 mM IPTG at 20° C. with shaking for 6 hours and lysed by sonication in 30 mM HEPES, pH 7.2, 5 mM DTT, and 5% glycerol. The soluble fraction of the lysate (100 mg/1 mL) was incubated with 20 μM GGDP in 30 mM HEPES, pH 7.2, 5 mM DTT, 5% glycerol, 2 mM MgCl2, and 500 μM MnCl2 overnight at 32° C. […]

[3] = in vitro assay of levopimaradiene synthase constructs expressed in wild-type S. cerevisiae JBY575; assay type: biochemical, Saccharomyces cerevisiae; settings: wild-type S. cerevisiae JBY575, galactose 48 hours, lysate with GGDP
Method: Expression in S. cerevisiae JBY575, which represents wild-type yeast, was observed. JBY575 cells transformed with pRS426GAL inserted with the putative levopimaradiene synthase were grown in synthetic complete medium lacking uracil and supplemented with 2% glucose and 1.5% agar at 30° C. to saturation and induced with galactose for 48 hours. Cells were harvested, resuspended in lysis buffer, and mixed by vortexing over glass beads. The lysate was assayed with 60 μM GGDP in the presence and absence of 0.2% and 5% Triton X-100.
as §1, §2
The skilled artisan recognizes that lysis and assay conditions should be optimized. Examples of parameters that can be adjusted to optimize conditions include altering buffer, pH, reductant, reductant concentration, metal cofactors, cofactor concentrations, glycerol concentrations, substrate concentrations, and assay temperatures. […] Maximum soluble protein production and diterpene yield were obtained with the following conditions. Cell cultures were induced with 1 mM IPTG at 20° C. with shaking for 6 hours and lysed by sonication in 30 mM HEPES, pH 7.2, 5 mM DTT, and 5% glycerol. The soluble fraction of the lysate (100 mg/1 mL) was incubated with 20 μM GGDP in 30 mM HEPES, pH 7.2, 5 mM DTT, 5% glycerol, 2 mM MgCl2, and 500 μM MnCl2 overnight at 32° C. Yeast expression was induced with galactose at 30° C. for 48 hours and the cells were lysed and assayed according to the conditions noted.

EHY18 yeast cells = assay: in vivo expression of GbLS constructs in yeast strain EHY18 that accumulates GGDP, GC quantitation of products; assay type: cell-based; settings: GC, GC/MS
Method: The yeast strain of the copending application employed was EHY18 (Hart, E., 2001) which was further transformed with multiple-copy yeast expression vectors comprising an isolated and purified nucleic acid sequence of GbLS or derivatives thereof, which are described herein under control of the GAL1 inducible promoter. Yeast cells were grown to saturation in 5 mL ScD-Leu-Ura at 30° C. Cells were harvested (1300×g, 2 min, 25° C.) and resuspended in 500 μL sterile Milli-Q H2O (2×). The washed cells were resuspended in 5 mL sterile Milli-Q H2O. An aliquot of the culture (5 μL) was added to a 25 mL Corex tube containing pre-prepared 2× resin and 5 mL ScG-Leu-Ura (4% galactose) and shaken at 30° C. for 6 days. Resin was collected by filtration through a Kontes chromatography column (1.7 cm diameter) and rinsed with dI H2O until eluent was clear. The resin was incubated in 2 mL ethanol for several minutes, eluted, and repeated 2×. The combined eluents were dissolved in approximately 3 mL dI H2O and extracted (3×) with 3 mL hexane. The combined extracts were concentrated under a stream of nitrogen. GC analysis (quantitation extrapolated from 0.2 mg/mL longifolene external standard) indicated the following product profile (obtained from triplicate measurement of three cultures): 0.61±0.20 mg/L levopimaradiene, 0.04±0.01 mg/L abietadiene, 0.15±0.05 mg/L abietatriene, 0.16±0.13 mg/L (+)-copalol, and 1.79±0.90 mg/L geranylgeraniol. GC/MS fragmentation confirmed the identity of each compound.
A large scale culture (1-L) was prepared by growing the yeast cells to saturation in 5 mL ScD-Leu-Ura at 30° C. Cells were harvested (1300×g, 2 min, 25° C.) and resuspended in 500 μL sterile Milli-Q H2O (2×). The washed cells were resuspended in 5 mL sterile Milli-Q H2O. An aliquot of the culture (1 mL) was added to a 2 L flask containing 1-L ScG-Leu-Ura (4% galactose) and 88.27 g resin in 120 mL Milli-Q H2O (pre-prepared). The resin was eluted with ethanol (3×100 mL with 20 min incubation periods), which was subsequently extracted (6×) with hexane. The combined extracts were dried over magnesium sulfate, filtered, and concentrated under reduced pressure. GC analysis (quantitation extrapolated from 0.2 mg/mL longifolene external standard) indicated the following product profile (obtained from triplicate measurement): 0.29±0.04 mg/L levopimaradiene, 0.04±0.02 mg/L abietadiene, 0.13±0.04 mg/L abietatriene, 0.11±0.02 mg/L (+)-copalol, and 0.56±0.03 mg/L geranylgeraniol. GC/MS analyses confirmed the production of the above noted diterpenes, which included hydrocarbons and an alcohol.
Further optimization studies employed the Ser61 construct. Factors influencing diterpene production included induction period and concentration of galactose and resin in the inducing medium.

## Cc1cc(OC(=O)N2CCCCC2)c(C(C)C)cc1[N+](C)(C)C.[Cl-] [AMO-1618]
[1]
  effect on diterpenoid content: Variable results

## COc1ccc(C(O)(c2cncnc2)C2CC2)cc1 (stereo not shown) [ancymidol]
[1]
  effect on diterpenoid content: Variable results

## CC(C)=CCC/C(C)=C/COP(=O)(O)OP(=O)(O)O [geranyl diphosphate]
Levopimaradiene synthase
  terpene formation from alternative substrate: did not produce any identifiable terpenes

## fluridone
[1]; application to G. biloba (Huh, et al., 1993)
  increase in ginkgolides: up to 78%

B1: Phe^129: Ginkgo biloba levopimaradiene synthase truncated at Cys^127-Met^128, referred to as Phe^129; SEQ.ID.NO:39 (protein, listed as Ginkgo biloba)
chain: MFQSMGDGETNPSAYDTAWVARIPSIDGSGAPQFPQTLQWILNNQLPDGSWGEECIFLAYDRVLNTLACLLTLKIWNKGDIQVQKGVEFVRKHMEEMKDEADNHRPSGFEVVFPAMLDEAKSLGLDLPYHLPFISQIHQKRQKKLQKIPLNVLHNHQTALLYSLEGLQDVVDWQEITNLQSRDGSFLSSPASTACVFMHTQNKRCLHFLNFVLSKFGDYVPCHYPLDLFERLWAVDTVERLGIDRYFKKEIKESLDYVYRYWDAERGVGWARCNPIPDVDDTAMGLRILRLHGYNVSSDVLENFRDEKGDFFCFAGQTQIGVTDNLNLYRCSQVCFPGEKIMEEAKTFTTNHLQNALAKNNAFDKWAVKKDLPGEVEYAIKYPWHRSMPRLEARSYIEQFGSNDVWLGKTVYKMLYVSNEKYLELAKLDFNMVQALHQKETQHIVSWWRESGFNDLTFTRQRPVEMYFSVAVSMFEPEFAACRIAYAKTSCLAVILDDLYDTHGSLDDLKLFSEAVRRWDISVLDSVRDNQLKVCFLGLYNTVNGFGKDGLKEQGRDVLGYLRKVWEGLLASYTKEAEWSAAKYVPTFNEYVENAKVSIALATVVLNSIFFTGELLPDYILQQVDLRSKFLHLVSLTGRLINDTKTYQAERNRGELVSSVQCYMRENPECTEEEALSHVYGIIDNALKELNWELANPASNAPLCVRRLLFNTARVMQLFYMYRDGFGISDKEMKDHVSRTLFDPVA
[2]
  diterpene product on bacterial expression: failed to produce detectable levels of any diterpene; also recorded: complete loss of enzymatic activity
[3]
  diterpene product on yeast expression: failed to produce observable levels of any diterpene product; also recorded: failed to produce detectable levels of biosynthetic product
EHY18 yeast cells
  diterpene products on expression in EHY18: no diterpene alcohol or hydrocarbon formation
